Assays:
woolly cupgrass = assay: Test C pre-/postemergence herbicide test; type: in vivo, Eriochloa villosa; details: for Plant response rating, Cupgrass, Woolly: preemergence
Summary of the method: (§1)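 Pre/post spray; non-phytotoxic solvent + surfactant. Post-timing 1–4 leaves, 2–18 cm. Read-out: visual % control vs untreated, day 12–14, greenhouse.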

Surinam grass = assay: Test C pre-/postemergence herbicide test; type: in vivo, Urochloa decumbens; details: for Plant response rating, Surinam Grass: preemergence
Summary of the method: as §1

eastern black nightshade = assay: Test C pre-/postemergence herbicide test; type: in vivo, Solanum ptycanthum; details: for Plant response rating, Nightshade: preemergence
Summary of the method: as §1

velvetleaf = assay: Test C pre-/postemergence herbicide test; type: in vivo, Abutilon theophrasti; details: for Plant response rating, Velvetleaf: preemergence
Summary of the method: as §1

corn = assay: Test C pre-/postemergence herbicide test; type: in vivo, Zea mays; details: for Plant response rating, Corn: preemergence
Summary of the method: as §1

johnsongrass = assay: Test C pre-/postemergence herbicide test; type: in vivo, Sorghum halepense; details: for Plant response rating, Johnsongrass: preemergence
Summary of the method: as §1

morningglory = assay: Test A pre-/postemergence herbicide test; type: in vivo, Ipomoea spp.
Summary of the method: (§2)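 Greenhouse injury scoring (0–100, complete control = 100) at approximately ten days follows simultaneous pre- and postemergence application. Soil received a directed spray after seeding; seedlings of 2–10 cm at the one- to two-leaf stage were sprayed to runoff.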

[1] = tested on: common (oilseed) sunflower; assay: Test C pre-/postemergence herbicide test; type: in vivo, Helianthus annuus; details: for Plant response rating, Sunflower: preemergence
Summary of the method: as §1

[2] = tested on: smallflower umbrella sedge; assay: Test C flooded paddy test; type: in vivo, Cyperus difformis; details: for Plant response rating, Sedge, Umbrella: 500 g ai/ha, visual rating after 12 to 14 days
barnyardgrass = assay: Test A pre-/postemergence herbicide test; type: in vivo, Echinochloa crus-galli
Summary of the method: as §2

[3] = 125 g ai/ha, scale 0 (no effect) to 100 (complete control), visual, 12 to 14 days
[4] = Preemergence, 500 g ai/ha, scale 0 to 100, 0 no effect, 100 complete control
[5] = Postemergence, 500 g ai/ha, 0 to 100 scale, 0 no effect, 100 complete control
[6] = Postemergence, 2000 g ai/ha, 0 to 100 scale, 0 no effect, 100 complete control
[7] = Preemergence, 2000 g ai/ha, visual rating, 0 to 100 scale (0 no effect, 100 complete control)
[8] = preemergence, 500 g ai/ha, visual injury, 0 to 100 scale (0 no effect, 100 complete control)
[9] = 62 g ai/ha, scale 0 to 100 (0 no effect, 100 complete control)
[10] = 125 g ai/ha, scale 0 to 100 (0 no effect, 100 complete control)
[11] = 250 g ai/ha, scale of 0 to 100, 0 is no effect, 100 is complete control
[12] = scale 0 to 100 (0 no effect, 100 complete control)
[13] = 500 g ai/ha, scale 0 to 100 (0 no effect, 100 complete control), visual, 12 to 14 days

| Structure (SMILES) | Plant response rating, Cupgrass, Woolly (woolly cupgrass; 62 g ai/ha, scale 0 to 100) | Plant response rating, Cupgrass, Woolly (woolly cupgrass; [3]) | Plant response rating, Surinam Grass (Surinam grass; 62 g ai/ha, scale 0 to 100) | Plant response rating, Surinam Grass (Surinam grass; 250 g ai/ha, scale 0-100) | Plant response rating, Nightshade (eastern black nightshade; 62 g ai/ha, scale 0 to 100) | Plant response rating, Nightshade (eastern black nightshade; [3]) | Plant response rating, Nightshade (eastern black nightshade; 250 g ai/ha, scale 0-100) | Plant response rating, Velvetleaf (velvetleaf; 62 g ai/ha, scale 0 to 100) | Plant response rating, Velvetleaf (velvetleaf; 250 g ai/ha, scale 0-100) | Plant response rating, Corn (corn; 62 g ai/ha, scale 0 to 100) | Plant response rating, Corn (corn; [3]) | Plant response rating, Corn (corn; 250 g ai/ha, scale 0-100) | Plant response rating, Johnsongrass (johnsongrass; 62 g ai/ha, scale 0 to 100) | Plant response rating, Johnsongrass (johnsongrass; [3]) | Morningglory plant response rating (morningglory; [5]) | Plant response rating, Morningglory (morningglory; [6]) | Morningglory plant response rating (morningglory; [7]) | Morningglory plant response rating (morningglory; [8]) | Plant response rating, Sunflower ([1]; 62 g ai/ha, scale 0 to 100) | Plant response rating, Sunflower ([1]; 250 g ai/ha, scale 0-100) | also measured |
| --- | --- | --- | --- | --- | --- | --- | --- | --- | --- | --- | --- | --- | --- | --- | --- | --- | --- | --- | --- | --- | --- |
| C=CCNC(=O)c1cccc(NC(=O)c2sc(C(C)(C)C)nc2CC)c1 [Compound 207] | 0 | 0 | 0 | 0 | 60 | 75 | 100 | 0 | 40 | 0 | 0 | 5 | 0 | 10 | 20 | 15 | 85 | 35 | 0 | 0 | Plant response rating, Cupgrass, Woolly (woolly cupgrass; 250 g ai/ha, scale 0-100): 5; Cupgrass, Woolly plant response rating (woolly cupgrass; [4]): 40; Plant response rating, Surinam Grass (Surinam grass; [3]): 0; Surinam Grass plant response rating (Surinam grass; [4]): 10; Nightshade plant response rating (eastern black nightshade; [4]): 100; Plant response rating, Velvetleaf (velvetleaf; [3]): 10; Velvetleaf plant response rating (velvetleaf; [4]): 60; Corn plant response rating (corn; [4]): 20; Plant response rating, Johnsongrass (johnsongrass; 250 g ai/ha, scale 0-100): 40; Johnsongrass plant response rating (johnsongrass; [4]): 50; Plant response rating, Sunflower [1, 3]: 0; Sunflower plant response rating [1, 4]: 0; Sedge, Umbrella plant response rating [2, 9]: 70; Sedge, Umbrella plant response rating [2, 10]: 75; Sedge, Umbrella plant response rating [2, 11]: 75; Plant response rating, Sedge, Umbrella [2, 12]: 90; Barnyardgrass plant response rating (barnyardgrass; [5]): 40; Plant response rating, Barnyardgrass (barnyardgrass; [6]): 70; Barnyardgrass plant response rating (barnyardgrass; [7]): 80; Barnyardgrass plant response rating (barnyardgrass; [8]): 70 |
| CCNC(=O)c1cccc(NC(=O)c2sc(C(C)(C)C)nc2CC)c1 [Compound 210] | 0 | 0 | 0 | 10 | 80 | 100 | 100 | 0 | 60 | 0 | 10 | 20 | 5 | 20 | 20 | 25 | 100 | 55 | 0 | 0 | Plant response rating, Cupgrass, Woolly (woolly cupgrass; 250 g ai/ha, scale 0-100): 5; Plant response rating, Cupgrass, Woolly (woolly cupgrass; [13]): 10; Plant response rating, Surinam Grass (Surinam grass; [3]): 5; Plant response rating, Surinam Grass (Surinam grass; [13]): 50; Plant response rating, Nightshade (eastern black nightshade; [13]): 100; Plant response rating, Velvetleaf (velvetleaf; [3]): 0; Plant response rating, Velvetleaf (velvetleaf; [13]): 80; Plant response rating, Corn (corn; [13]): 40; Plant response rating, Johnsongrass (johnsongrass; 250 g ai/ha, scale 0-100): 50; Plant response rating, Johnsongrass (johnsongrass; [13]): 70; Plant response rating, Sunflower [1, 3]: 0; Plant response rating, Sunflower [1, 13]: 0; Sedge, Umbrella plant response rating [2, 9]: 75; Sedge, Umbrella plant response rating [2, 10]: 80; Sedge, Umbrella plant response rating [2, 11]: 85; Plant response rating, Sedge, Umbrella [2, 12]: 90; Barnyardgrass plant response rating (barnyardgrass; [5]): 80; Plant response rating, Barnyardgrass (barnyardgrass; [6]): 80; Barnyardgrass plant response rating (barnyardgrass; [7]): 90; Barnyardgrass plant response rating (barnyardgrass; [8]): 85 |
| CCc1nn(C(C)(C)C)cc1C(=O)Nc1cc(C(=O)N(CC)CC)ccc1F [Compound 223] | 0 | 10 | 50 | 70 | 100 | 100 | 100 | 0 | 100 | 0 | 0 | 5 | 80 | 80 | 50 | 60 | 55 | 35 | 0 | 0 | Plant response rating, Cupgrass, Woolly (woolly cupgrass; [13]): 80; Plant response rating, Surinam Grass (Surinam grass; [13]): 85; Plant response rating, Nightshade (eastern black nightshade; [13]): 100; Plant response rating, Velvetleaf (velvetleaf; [13]): 100; Plant response rating, Corn (corn; [13]): 50; Plant response rating, Sunflower [1, 13]: 30; Sedge, Umbrella plant response rating [2, 9]: 0; Sedge, Umbrella plant response rating [2, 10]: 0; Sedge, Umbrella plant response rating [2, 11]: 65; Plant response rating, Sedge, Umbrella [2, 12]: 85; Barnyardgrass plant response rating (barnyardgrass; [5]): 10; Plant response rating, Barnyardgrass (barnyardgrass; [6]): 55; Barnyardgrass plant response rating (barnyardgrass; [7]): 80; Barnyardgrass plant response rating (barnyardgrass; [8]): 55 |

Source: patent US20060069132A1, “Azolecarboxamide herbicides” (priority 2004, published 2006)
